In patent US5244908A, “Imidazopyridine derivatives and their pharmaceutical use” (Takeda Chemical Industries, Ltd., priority 1990, dated 1993) one finds inhibition data, which are given here for 19 compounds.

The structures appear in SMILES notation.

The experiment deals with calmodulin (Bos taurus, UniProt P62157). Put plainly: Calmodulin inhibitory activity (calmodulin-activated cyclic nucleotide phosphodiesterase, [3H]cGMP). It counts as biochemical. The note with it: 10^-5 M.
Compound `CC(C)OC(=O)NCCSc1cccc2nccn12` [Compound 132, 5-[2-(Isopropyloxycarbonylamino)ethylthio]imidazo[1,2-a]pyridine] yielded an inhibition at 10 µM of 50%.
For `O=S(=O)(N1CCC(Sc2cccc3nccn23)CC1)C(F)(F)F` [Compound 165, 5-[1-(trifluoromethanesulfonyl)4-piperidylthio]imidazo[1,2-a]pyridine] the value was 65%; for `CCCNC(=O)NCCSc1cccc2nccn12` [Compound 102, 5-[2-(Propylcarbamoylamino)ethylthio]imidazo[1,2-a]pyridine], 52%; for `COc1ccc(NC(=S)NCCSc2cccc3nccn23)cc1` [Compound 109, 5-[2-[4-(Methoxy)phenylthiocarbamoylamino]ethylthio]imidazo[1,2-a]pyridine], 50%.
Then `O=C(NCCSc1cccc2nccn12)NC1CCCCC1` [Compound 105, 5-[2-(Cyclohexylcarbamoylamino)ethylthio]imidazo[1,2-a]pyridine], with 67%.
For `CS(=O)(=O)NCCOc1cccc2nccn12` [Compound 62, 5-[2-(Methylsulfonylamino)ethyloxy]imidazo[1,2-a]pyridine] the value was 79%; for `O=S(=O)(N1CCC(Oc2cccc3nccn23)CC1)C(F)(F)F` [Compound 77, 5-[1-(Trifuloromethylsulfonyl)-4-piperidyloxy]imidazo[1,2-a]pyridine], 80%; for `CC(C)NC(=O)NCCSc1cccc2nccn12` [Compound 103, 5-[2-(Isopropylcarbamoylamino)ethylthio]imidazo[1,2-a]pyridine], 52%.
In turn, `CC(=O)N(CCCSc1cccc2nccn12)CCNc1ccccc1` [Compound 158, 5-[3-[[2-(Anilino)ethyl]-N-(acetyl)amino]propylthio]imidazo[1,2-a]pyridine] returned an inhibition at 10 µM of 81%.
Then `Cc1cn2c(SCCNC(=S)Nc3ccccc3)cccc2n1` [Compound 115, 2-Methyl-5-[2-(phenylthiocarbamoylamino)ethylthio]imidazo[1,2-a]pyridine], with 53%; and `O=C(NCCSc1cccc2nccn12)c1cccs1` [Compound 89, 5-[2-[(2-Thenoylamino)]ethylthio]imidazo[1,2-a]pyridine], with 54%; and `O=S(=O)(NCCCOc1cccc2nccn12)c1cccc2ccccc12` [Compound 79, 5-[3-(1-(Naphthyl)sulfonylamino)propyloxy]imidazo[1,2-a]pyridine], with 50%.
For `O=C(NCCSc1cccc2nccn12)OCC(Cl)(Cl)Cl` [Compound 136, 5-[2-[2,2,2-(Trichloro)ethoxycarbonylamino]ethylthio]imidazo[1,2-a]pyridine] the value was 52%.
Then `CS(=O)(=O)NCCCSc1cccc2nccn12` [Compound 27, 5-[3-(Methylsulfonylamino)propylthio]imidazo[1,2-a]pyridine], with 51%.
Turning to `O=C(NCCSc1cccc2nccn12)c1ccccc1` [Compound 87, 5-[2-(Benzoylamino)ethylthio]imidazo[1,2-a]pyridine], the inhibition at 10 µM turned out to be 51%.
The compound `O=S(=O)(NCCOc1cccc2nccn12)c1cccc2ccccc12` [Compound 78, 5-[2-(1-(Naphthyl)sulfonylamino)ethyloxy]imidazo[1,2-a]pyridine] displayed an inhibition at 10 µM of 56%.
Then `CC(C)S(=O)(=O)NCCSc1cccc2nccn12` [Compound 5, 5-[2-(Isopropylsulfonylamino)ethylthio]imidazo[1,2-a]pyridine], with 50%; and `C=CCOC(=O)NCCSc1cccc2nccn12` [Compound 135, 5-[2-(Allyloxycarbonylamino)ethylthio]imidazo[1,2-a]pyridine], with 60%; and `CS(=O)(=O)NCC(Oc1cccc2nccn12)c1ccccc1` (stereo not shown) [Compound 74, 5-[2-(Methylsulfonylamino)-1-(phenyl)ethyloxy]imidazo[1,2-a]pyridine], with 50%.
